Reference: patent publication US9944603B2, “Compounds and methods for the treatment of cystic fibrosis” (Flatley Discovery Lab, LLC, priority 2013, dated 2018)

Target: T1, human F508del CFTR (Homo sapiens, UniProt P13569, DEL508-508)
T1 construct: expressed in transfected cells
Assay: CFTR-YFP Assay, CFTR Corrector Protocol (YFP flux assay)
Assay type: cell-based
Details: for Emax: normalized to the positive control, read-out: EMAX (% Efficacy, EMAX normalized to the positive control)

T1 sequence (P13569 with tags, fused parts or gaps DEL508-508): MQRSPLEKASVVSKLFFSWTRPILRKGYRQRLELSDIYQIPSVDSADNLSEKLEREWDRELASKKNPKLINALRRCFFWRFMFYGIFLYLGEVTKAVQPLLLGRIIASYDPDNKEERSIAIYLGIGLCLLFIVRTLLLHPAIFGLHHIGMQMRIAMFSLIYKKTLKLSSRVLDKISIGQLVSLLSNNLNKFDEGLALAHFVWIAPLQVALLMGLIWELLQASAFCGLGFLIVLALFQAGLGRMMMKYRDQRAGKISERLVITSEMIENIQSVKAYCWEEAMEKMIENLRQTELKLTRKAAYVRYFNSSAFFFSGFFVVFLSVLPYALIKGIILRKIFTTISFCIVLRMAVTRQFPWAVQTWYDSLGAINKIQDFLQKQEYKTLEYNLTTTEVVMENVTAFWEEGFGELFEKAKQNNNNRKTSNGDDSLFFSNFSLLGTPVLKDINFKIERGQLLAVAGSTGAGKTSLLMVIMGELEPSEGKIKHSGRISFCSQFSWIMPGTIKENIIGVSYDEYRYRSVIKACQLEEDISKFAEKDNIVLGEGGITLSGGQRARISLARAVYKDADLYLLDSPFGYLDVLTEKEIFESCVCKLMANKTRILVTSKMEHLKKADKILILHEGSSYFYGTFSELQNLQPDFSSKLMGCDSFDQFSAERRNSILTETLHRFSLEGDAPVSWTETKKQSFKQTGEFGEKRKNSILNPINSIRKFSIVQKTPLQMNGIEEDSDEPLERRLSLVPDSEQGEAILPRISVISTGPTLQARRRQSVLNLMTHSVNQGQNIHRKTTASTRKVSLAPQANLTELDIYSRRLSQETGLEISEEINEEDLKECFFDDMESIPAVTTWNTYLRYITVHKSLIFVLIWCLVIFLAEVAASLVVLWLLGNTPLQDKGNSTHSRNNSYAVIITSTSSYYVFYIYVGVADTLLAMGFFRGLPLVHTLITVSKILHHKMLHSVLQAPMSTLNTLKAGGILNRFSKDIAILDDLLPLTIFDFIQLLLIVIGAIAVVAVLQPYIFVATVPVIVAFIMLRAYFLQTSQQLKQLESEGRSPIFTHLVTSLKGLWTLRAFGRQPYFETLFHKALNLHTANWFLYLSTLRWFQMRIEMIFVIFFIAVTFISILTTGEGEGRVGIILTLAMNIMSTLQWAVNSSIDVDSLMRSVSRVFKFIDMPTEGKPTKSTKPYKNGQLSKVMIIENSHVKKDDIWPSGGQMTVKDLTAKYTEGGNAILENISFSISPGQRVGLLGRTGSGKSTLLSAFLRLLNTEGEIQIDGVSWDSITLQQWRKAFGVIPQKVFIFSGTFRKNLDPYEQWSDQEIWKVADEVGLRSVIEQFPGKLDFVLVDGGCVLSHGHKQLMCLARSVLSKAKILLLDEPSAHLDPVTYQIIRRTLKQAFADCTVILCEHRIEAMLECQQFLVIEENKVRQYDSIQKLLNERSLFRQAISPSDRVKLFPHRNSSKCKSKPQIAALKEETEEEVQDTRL

Row | Compound | EC50 [µM] | Emax [%]
1 | O=S(=O)(c1ccc2c(c1)OC(F)(F)O2)N1CCC(n2c(-c3cccnc3Cl)nc3cccnc32)CC1 [Example 102] | < 10 | 30 to 80
2 | COc1ccc(S(=O)(=O)N2CCC(n3c(-c4ccccc4)cc4ccccc43)CC2)cc1Cl [Example 103] | < 10 | 10 to 30
3 | O=S(=O)(c1ccc2c(c1)OC(F)(F)O2)N1CCC(n2c(-c3ccccc3)cc3ccccc32)CC1 [Example 104] | < 10 | 30 to 80
4 | O=S(=O)(c1ccc2c(c1)OC(F)(F)O2)N1CCC(n2c(-c3ccc(F)nc3F)nc3cccnc32)CC1 [Example 106] | < 10 | 10 to 30
5 | CCc1ccc(S(=O)(=O)N2CCC(n3c(-c4ccncc4F)nc4cccnc43)CC2)cc1 [Example 110] | < 10 | 30 to 80
6 | CCc1ccc(S(=O)(=O)N2CCC(n3c(-c4ccc(F)nc4F)nc4cccnc43)CC2)cc1 [Example 111] | < 10 | 30 to 80
7 | Cc1ccc2nc(-c3ccncc3F)n(C3CCN(S(=O)(=O)c4ccc5c(c4)OC(F)(F)O5)CC3)c2n1 [Example 112] | < 10 | > 80
8 | CCc1ccc(S(=O)(=O)N2CCC(n3c(-c4ccncc4F)nc4ccc(C)nc43)CC2)cc1 [Example 113] | < 10 | 30 to 80
9 | Cc1ccc2nc(-c3ccncn3)n(C3CCN(S(=O)(=O)c4ccc5c(c4)OC(F)(F)O5)CC3)c2n1 [Example 114] | < 10 | 30 to 80
10 | CCc1ccc(S(=O)(=O)N2CCC(n3c(-c4ccncn4)nc4ccc(C)nc43)CC2)cc1 [Example 115] | < 10 | 30 to 80
11 | O=S(=O)(c1ccc2c(c1)OC(F)(F)O2)N1CCC(n2c(-c3ccncc3F)nc3ncccc32)CC1 [Example 116] | < 10 | > 80
12 | COc1ccc2nc(-c3ccncc3Cl)n(C3CCN(S(=O)(=O)c4ccc5c(c4)OC(F)(F)O5)CC3)c2n1 [Example 118] | < 10 | 30 to 80
13 | O=S(=O)(c1ccc2c(c1)OC(F)(F)O2)N1CCC(n2c(-c3cccnc3F)nc3cccnc32)CC1 [Example 119] | < 10 | > 80
14 | CCc1ccc(S(=O)(=O)N2CCC(n3c(-c4cccnc4F)nc4cccnc43)CC2)cc1 [Example 120] | < 10 | > 80
15 | O=S(=O)(c1ccc2c(c1)OCO2)N1CCC(n2c(-c3cccnc3F)nc3cccnc32)CC1 [Example 123] | < 10 | 10 to 30
16 | O=S(=O)(c1ccc2c(c1)OC(F)(F)O2)N1CCC(n2c(-c3ccccc3OC(F)(F)F)nc3cccnc32)CC1 [Example 124] | < 10 | 30 to 80

The remaining lines, values ahead:

Row | EC50 [µM] | Emax [%] | Compound
17 | < 10 | 30 to 80 | O=S(=O)(c1ccc2c(c1)OCO2)N1CCC(n2c(-c3ccc(F)nc3F)nc3cccnc32)CC1 [Example 105]
18 | < 10 | 30 to 80 | O=S(=O)(c1ccc2c(c1)OCO2)N1CCC(n2c(-c3ccncc3F)nc3cccnc32)CC1 [Example 107]
19 | < 10 | 30 to 80 | O=S(=O)(c1ccc2c(c1)OCO2)N1CCC(n2c(-c3ccc(F)cc3F)nc3cccnc32)CC1 [Example 108]
20 | < 10 | 30 to 80 | O=S(=O)(c1ccc2c(c1)OC(F)(F)O2)N1CCC(n2c(-c3ccc(F)cc3F)nc3cccnc32)CC1 [Example 109]
21 | < 10 | 30 to 80 | O=S(=O)(c1ccc2c(c1)CCO2)N1CCC(n2c(-c3ccncc3F)nc3cccnc32)CC1 [Example 117]
22 | < 10 | 30 to 80 | O=S(=O)(c1ccc2c(c1)CCO2)N1CCC(n2c(-c3ccc(F)cc3F)nc3cccnc32)CC1 [Example 121]
23 | < 10 | > 80 | O=S(=O)(c1ccc2c(c1)CCC2)N1CCC(n2c(-c3ccc(F)cc3F)nc3cccnc32)CC1 [Example 122]
24 | < 10 | 30 to 80 | O=S(=O)(c1ccc2c(c1)OC(F)(F)O2)N1CCC(n2c(-c3ccc(F)cc3C(F)(F)F)nc3cccnc32)CC1 [Example 125]
